Source: US12378192B2, “Crystalline form of capsid protein assembly inhibitor containing N hetero five-membered ring, and application thereof” (CHIA TAI TIANQING PHARMACEUTICAL GROUP CO., LTD., priority 2019, dated 2025)

Columns and labels:
[1] = Plasma protein binding assay (equilibrium dialysis), mouse plasma; format: in vitro ADME
Description: (§1) Preparation of plasma samples: 5 μL of test compound solution or positive control was added to 495 μL of blank plasma of various species (mouse, rat, dog, monkey and human) to obtain plasma sample solutions at plasma concentrations of 1 μM and 10 μM (in acetonitrile).
(§2) The pretreated dialysis membrane was loaded on a high-throughput equilibrium dialysis system. 100 μL of the plasma sample solution and PBS buffer were added to the two sides (sample side and buffer side) of the dialysis membrane respectively (n=3). The system was sealed with a patch and incubated at 37° C. overnight (100 rpm) to achieve dialysis equilibrium. 50 μL samples were taken from the sample side and the buffer side, and the reaction was terminated with glacial acetonitrile containing an internal standard.
(§3) Sample pretreatment: 450 μL of glacial acetonitrile containing an internal standard was added to 50 μL of the sample from the plasma side for precipitation. The mixture was vortexed for 5 min, and centrifuged (12000 rpm, 4° C.) for 10 min. 75 μL of supernatant was taken and diluted with 75 μL of ultrapure water. After being mixed well, 1 μL of the resulting sample was injected for analysis; 250 μL of glacial acetonitrile containing an internal standard was added to 50 μL of the sample from the PBS side for precipitation. The mixture was vortexed for 5 min, and centrifuged (12000 rpm, 4° C.) for 10 min. […]

[2] = system: HBV DNA in HepG2.2.15 cells; experiment: In-vitro inhibitory activity against HBV DNA in HepG2.2.15 cells; format: cell-based; details: Hepatitis B virus, 144 h, 6 days treatment, intracellular capsid HBV DNA by qPCR, read-out: EC50 (anti-HBV activity)
Description: (§4) A vial of HepG2.2.15 cells (Wuhan Institute of Virology) or HepAD38 cells in good condition and at logarithmic growth phase was washed once with 5 mL of PBS. 3 mL of pancreatin was added. The cells were digested at room temperature for 5 min, then 2 mL of pancreatin was discarded. The cells were further digested in a cell incubator for 10 min, and observed under a microscope (whether the cells are round in shape, and whether the cells are separated or adhered). 10 mL of complete medium was added to terminate the digestion. The cells was mixed using a pipette to obtain a single cell suspension. 10 μL of the cell suspension was loaded on a cell counter for counting, and diluted with the complete medium to adjust the cell density to 1×10^5 cells/mL. The cells were seeded on a 24-well plate (pre-coated with 50 μg/mL Collagen I solution) at 1 mL/well using a multi-channel pipette and cultured in a thermostatic CO2 incubator for 48 h.
(§5) A solution of the compound dissolved in DMSO was diluted to 10 concentrations in a 2-fold gradient using complete medium. The cells were treated with the compound for 6 days with the media containing the compound refreshed every 72 h. […] HBV DNA in the intracellular viral capsid was measured by real-time fluorescent quantitative PCR. The inhibition rate was calculated according to the Ct value, and the EC50 value was calculated by four-parameter fitting.

[3] = format: in vitro ADME
Description: A final incubation system of 300 μL contained 30 μL of liver microsomes (protein concentration: 0.15 mg/mL), 30 μL of NADPH+MgCl2, 3 μL of substrate (in acetonitrile) and 237 μL of PBS. Samples were prepared in duplicate of 0.3 mL for each specie. For each tube, the 270 μL mixed solution of substrates and enzyme and the NADPH solution were separately pre-incubated at 37° C. for 5 min. The 30 μL mixed solution of NADPH+MgCl2 was added for reaction. 50 μL samples were taken at 0 min, 10 min, 30 min and 60 min, and 300 μL of glacial acetonitrile containing an internal standard was added to the samples to terminate the reaction.
Sample pretreatment: 300 μL of glacial acetonitrile containing internal standard diazepam was added to 50 μL of the incubated sample for precipitation. The mixture was vortexed for 5 min, and centrifuged (12000 rpm, 4° C.) for 10 min. 75 μL of supernatant was added to a 96-well plate and diluted with 75 μL of ultrapure water. After being mixed well, 0.5 μL of the resulting sample was injected to a LC-MS/MS system for analysis.

[4] = Plasma protein binding assay (equilibrium dialysis), human plasma; format: in vitro ADME
Description: as §1, §2, §3

[5] = Plasma protein binding assay (equilibrium dialysis), dog plasma; format: in vitro ADME
Description: as §1, §2, §3

[6] = Pharmacokinetic (PK) study in rats; format: in vivo; details: SD rats, PO 20 mg/kg
Description: SD rats (B&K Universal, Shanghai) of 180-220 g were randomized into groups of 3 after 3-5 days of acclimatization and administered with the compounds at a dose of 20 mg/kg by oral gavage.
The animals to be tested (SD rats) were fasted for 12 h before administration and fed 4 h after administration, and had free access to water before, after and during the experiment.
After administration, about 0.2 mL of blood was collected from the orbit at 0 min, 15 min, 30 min, 1 h, 2 h, 4 h, 6 h, 8 h, 10 h, 24 h, 30 h and 48 h. After anticoagulation with EDTA-K2, the blood samples were transferred to a centrifuge at 4° C. within 30 min and centrifuged at 4000 rpm for 10 min to separate the plasma. All the plasma samples were collected and immediately stored at −20° C. for testing. 50 μL of the plasma sample to be tested and standard curve sample were taken, and 500 μL of acetonitrile solution containing an internal standard (20 mg/mL diazepam) was added. The reaction system was shaken for 5 min and centrifuged at 12,000 rpm for 10 min. 75 μL of supernatant was taken and diluted with 75 μL of ultrapure water.
After being mixed well, 1 μL of the resulting sample was taken for LC/MS/MS analysis.

[7] = Plasma protein binding assay (equilibrium dialysis), rat plasma; format: in vitro ADME
Description: as §1, §2, §3

HBV DNA in HepAD38 cells = experiment: In-vitro inhibitory activity against HBV DNA in HepAD38 cells; format: cell-based; details: Hepatitis B virus, 144 h, 6 days treatment, intracellular capsid HBV DNA by qPCR, read-out: EC50 (anti-HBV activity)
Description: as §4, §5

[8] = Plasma protein binding assay (equilibrium dialysis), monkey plasma; format: in vitro ADME
Description: as §1, §2, §3

[9] = Stability assay of crystalline form (influential factors: high temperature, high humidity, illumination); format: physicochemical; details: for Stability at high humidity, at high temperature or under illumination (in words): related substance and water over the observation items
Description: The crystalline form I of the compound of formula I prepared in Example 2 and the crystalline form II of the compound of formula I prepared in Example 4, each of 500 mg, were separately placed in dry and clean containers, and evenly spread in thin layers as test samples. The samples were completely exposed to experimental conditions of influential factors (40° C., 60° C., 75% RH, 92.5% RH, high temperature and high humidity (40° C., 75% RH)). Samples were taken for analysis on day 10 and day 30. The samples were completely exposed to illumination (visible light of 1,200,000 Lux·hr, UV of 216 W·hr/m^2) at room temperature.
Chromatographic column: Agilent AdvanceBio Peptide C18 (4.6 mm×150 mm, 3.5 μm).
The water content was measured by a Mettler V20 system.
About 10 mg of the sample was dissolved with an appropriate amount of a mixed diluent of acetonitrile-water (70:30) for content assay of related substance.

[10] = High humidity (92.5% RH), Day 10
[11] = High humidity (92.5% RH), Day 30
[12] = High temperature (40° C.), Day 10
[13] = High temperature (40° C.), Day 30
[14] = High temperature (60° C.), Day 10
[15] = High temperature (60° C.), Day 30
[16] = High temperature and high humidity (40° C., 75% RH), Day 10
[17] = High temperature and high humidity (40° C., 75% RH), Day 30

Row | Compound | Related substance (total impurities) ([9]; Day 0) | Water ([9]; Day 0) | Related substance (total impurities) ([9]; High humidity (75% RH), Day 10) | Water ([9]; High humidity (75% RH), Day 10) | Related substance (total impurities) ([9]; High humidity (75% RH), Day 30) | Water ([9]; High humidity (75% RH), Day 30) | Related substance (total impurities) [9, 10] | Water [9, 10] | Related substance (total impurities) [9, 11] | Water [9, 11] | Related substance (total impurities) [9, 12] | Water [9, 12] | Related substance (total impurities) [9, 13] | Water [9, 13] | Related substance (total impurities) [9, 14] | Water [9, 14] | Related substance (total impurities) [9, 15] | Water [9, 15] | Related substance (total impurities) [9, 16] | Water [9, 16] | also measured
1 | Cc1c(C(=O)Nc2ccc(F)c(C#N)c2)c(C)n(C)c1C(=O)C(=O)N[C@@H](C)C(F)(F)F [Compound of formula I, (S)—N-(3-cyano-4-fluorophenyl)-1,2,4-trimethyl-5-(2-oxo-2-((1,1,1-trifluoropropan-2-yl)amino)acetyl)-1H-pyrrol-3-carboxamide] |  |  |  |  |  |  |  |  |  |  |  |  |  |  |  |  |  |  |  |  | Binding rate, Mouse ([1]; 1 μM): 75.3%; Binding rate, Mouse ([1]; 10 μM): 74.5%; EC50 [2]: ≤ 10 nM; Residual content after 60 min, Human liver microsome [3]: 78.8%; Residual content after 60 min, Mouse liver microsome [3]: 67.1%; Residual content after 60 min, Rat liver microsome [3]: 65.0%; Binding rate, Human ([4]; 1 μM): 94.0%; Binding rate, Human ([4]; 10 μM): 93.7%; Binding rate, Dog ([5]; 1 μM): 85.9%; Binding rate, Dog ([5]; 10 μM): 85.9%; F [6]: 57%; Binding rate, Rat ([7]; 1 μM): 82.0%; Binding rate, Rat ([7]; 10 μM): 79.2%; EC50 (HBV DNA in HepAD38 cells): ≤ 10 nM; Binding rate, Monkey ([8]; 1 μM): 90.7%; Binding rate, Monkey ([8]; 10 μM): 90.6%
2 | Cc1c(C(=O)Nc2ccc(F)c(C#N)c2)c(C)n(C)c1C(=O)C(=O)N[C@@H](C)C(F)(F)F [crystalline form II, (S)—N-(3-cyano-4-fluorophenyl)-1,2,4-trimethyl-5-(2-oxo-2-((1,1,1-trifluoropropan-2-yl)amino)acetyl)-1H-pyrrol-3-carboxamide] | 0.24% | 0.22% | 0.23% | 0.22% | 0.25% | 0.21% | 0.23% | 0.22% | 0.24% | 0.21% | 0.22% | 0.20% | 0.24% | 0.19% | 0.22% | 0.18% | 0.24% | 0.18% | 0.24% | 0.24% | Related substance (total impurities) [9, 17]: 0.24%; Water [9, 17]: 0.21%; Related substance (total impurities) ([9]; Illumination, Day 10): 0.27%; Water ([9]; Illumination, Day 10): 0.22%; Stability at high humidity, at high temperature or under illumination (in words) [9]: good stability
3 | Cc1c(C(=O)Nc2ccc(F)c(C#N)c2)c(C)n(C)c1C(=O)C(=O)N[C@@H](C)C(F)(F)F [crystalline form I, (S)—N-(3-cyano-4-fluorophenyl)-1,2,4-trimethyl-5-(2-oxo-2-((1,1,1-trifluoropropan-2-yl)amino)acetyl)-1H-pyrrol-3-carboxamide] | 0.55% | 0.27% | 0.72% | 0.19% | 0.66% | 0.20% | 0.69% | 0.21% | 0.66% | 0.26% | 0.66% | 0.18% | 0.63% | 0.19% | 0.66% | 0.20% | 0.60% | 0.18% | 0.64% | 0.17% | Related substance (total impurities) [9, 17]: 0.64%; Water [9, 17]: 0.22%; Related substance (total impurities) ([9]; Illumination, Day 10): 0.63%; Water ([9]; Illumination, Day 10): 0.16%; Stability at high humidity, at high temperature or under illumination (in words) [9]: good stability
